From patent US20240218333A1, “GENERATING QUIESCENT HEPATIC STELLATE CELLS AND THEIR USE IN LIVER MODELS” (The Cleveland Clinic Foundation, priority 2022, published 2024)

Key:
Assay type in all cases: cell-based, human
[1] = test system: hPSC-derived and primary HSCs; assay: Cell migration (scratch) assay; details: 48 hrs
[2] = test system: PNPLA3^WT liver cultures; assay: IL6 supplementation of liver cultures
Method: FIG. 15. Elevated IL6/STAT3 activity mediates the enhanced susceptibility to NAFLD phenotypes in PNPLA3^I148M liver cultures (A). Analysis of IL6 by ELISA in the supernatant of shRNA control (Ctrl) or sh-IL6 liver cultures maintained in lipotoxic condition for two weeks. Shown are mean±SD from 3 independent experiments. (B). From the experiment in (A), the transcript levels of CHI3L1 and CXCL10 in purified macrophages were analyzed by RT-qPCR. Shown are mean±SD from 3 independent experiments. (C-D). From the experiment in (A), HSCs were purified and subject to western blot analysis of STAT3 and phosphorylated STAT3 (T705) (C), and to RT-qPCR analysis of the transcript levels of inflammatory cytokine CCL5 and quiescent marker PPARG (D). For western blot, RPS11 was used as a loading control. For RT-qPCR, shown are mean±SD from 3 independent experiments. (E-H). The isogenic pair of liver cultures were maintained in lipotoxic condition for two weeks in the presence of either isotype control antibody (Ctrl) or IL6 neutralizing antibody (nIL6 Ab, 100 ng/ml). Individual cells were purified from these liver cultures and subject to RT-qPCR analysis of lipogenic-associated enzyme genes ACC1 and FASN in hepatocytes (E) and inflammatory cytokine CHI3L1 in macrophages (F), western blot analysis of HSC activation markers FN, COL1A1, and ACTA2 (G), and phosphorylated STAT3 (H) in HSCs. For western blot, RPS11 was used as a loading control. For RT-qPCR, shown are mean±SD from 3 independent experiments. (I-J). PNPLA3^WT liver cultures were treated with either healthy or lipotoxic condition for 5 days and then IL6 (100 pg/ml) was added to one set of lipotoxic treated cultures for additional 2 days. Hepatocytes were purified and subject to analysis for triacylglycerol (TAG) level (I), transcript levels of ACC1 and FASN (J) by RT-qPCR. For TAG quantification, shown are mean±SD for 4 independent experiments; for RT-qPCR, shown are mean±SD from 3 independent experiments. Statistical analysis was performed using a two-tailed unpaired t-test with Welch's corrections or One-way ANOVA/Tukey's multiple comparisons test to calculate exact p-values.
As a complementary approach, we determined if IL6 was sufficient to enhance NAFLD susceptibility in lipotoxic conditions by supplementing IL6 in PNPLA3^WT cultures to a level similar to that of PNPLA3^I148M cultures. We began after 5 days of lipotoxic exposure when disease phenotypes begin to manifest (FIG. 5B) and only maintained liver cultures for 2 more days to minimize the compounded effect of continuous IL6 secretion on our observations. […] Changes in glucose secretion were not detected, however, likely due to the brevity of IL6 supplementation.
Intracellular triacylglycerol levels were analyzed for hPSC-derived HEPs purified from different conditions using commercial kits (Promega) per the manufacturer's instructions.

[3] = test system: hPSC-derived HSCs; assay: In vitro activation of quiescent HSCs; details: for activation of hPSC-HSCs (COL1A1, FN, ACTA2 western blot): TGFβ1 5 ng/ml, FBS 10%, PDGF 30 ng/ml, 72 hrs
[4] = test system: Kupffer cells and hPSC-macrophages; assay: Stimulation of macrophages, cytokine transcripts by RT-qPCR; details: LPS 100 ng/ml, 12 hrs
[5] = test system: hPSC-derived multicellular liver culture; assay: LPS treatment of multicellular liver culture
Description: FIG. 2. Characterization of the multicellular liver culture. (A) Albumin secretion from three-cell (HEP/HSC/Mac), two-cell (HEP/HSC), and HEP monoculture, n=3. (B) Analysis of CYP3A4 and CYP2B6 transcripts in hepatocytes, n=4. (C) Analysis of LRAT transcript in HSCs from three-cell (HSC/HEP/Mac), two-cell (HSC/HEP, HSC/Mac) and HSC monoculture, n=4. (D) Staining of lipid droplets, hepatocytes (ALB), and HSCs (PCDH7). (E) Analysis of IL10 transcript in individual cell-type at three-weeks post-coculture, n=4. (F) Analysis of IL6 and TNF transcripts in macrophages, n=4. Positive control: IFNγ-treated macrophages. (G) Cytokines analysis in liver cultures treated with LPS (500 ng/ml) or control, with or without macrophages, n=4. Data are mean±S.D; Student's t-test (two-tailed) with Welch's corrections (B); One-way ANOVA with Tukey's multiple comparisons test (A, C, E-G).
FIG. 10. Characterization of multicellular liver culture. (A). Transcript levels of PPARG were analyzed in purified HSCs from the hPSC-derived liver cultures with three-cell (HSC, HEP, and Mac), two-cell (HSC and HEP, HSC and Mac) and HSC monoculture at the indicated time points post co-culture by RT-qPCR. […] Transcript levels of IL10 and macrophages marker CD163 were analyzed in purified macrophages from the hPSC-derived liver cultures with three-cell (HSC, HEP, and Mac) and two-cell (Mac and HEP, Mac and HSC) by RT-qPCR. […] HSC activation markers FN and COL1A1 were analyzed by western blot in HSCs purified from three-cell (HEP, HSC and Mac) and two-cell (HSC and HEP, HSC and Mac) liver cultures treated with LPS (100 ng/ml) for one week. […] Transcript levels of TGFB1 and IL1B in pooled cells from the liver cultures of three-cell (HSC, HEP, and Mac) and two-cell (HSC and HEP) were analyzed at one week post LPS (100 ng/ml) treatment by RT-qPCR. […] Transcript levels of IL1B and TGFB1 in purified individual cells from liver cultures treated with either vehicle control or LPS (100 ng/ml) for one week were analyzed by RT-qPCR. Fold changes were calculated by normalized to individual cells treated with vehicle control. […]

[6] = lipotoxic 5 days, then IL6 100 pg/ml for 2 days

C[C@@H](N)[C@H]1CC[C@H](C(=O)Nc2ccncc2)CC1 [Y-27632, reference compound]
motility of activated hPSC-HSCs (closure distance) ([1]; Y-27632 20 μM): markedly inhibited

IL6: interleukin 6, cytokine supplemented to liver cultures
regulation of genes that drive the GO results of I148M homozygous patients ([2]; IL6-treated liver cultures): readily regulated | activation of HSCs from PNPLA3^WT cultures ([2]; IL6 addition under lipotoxic conditions): dramatically activated | changes in glucose secretion [2, 6]: not detected | intracellular TAG levels in PNPLA3^WT hepatocytes [2, 6]: increased | lipogenesis-associated enzyme expression in PNPLA3^WT hepatocytes [2, 6]: increased

TGFβ1: transforming growth factor beta 1, pro-fibrotic stimulus
motility of hPSC-HSCs (closure distance) ([1]; activating stimulus, similar to pHSCs): enhanced motility | activation of hPSC-HSCs (COL1A1, FN, ACTA2 western blot) [3]: clearly activated

lipopolysaccharide [LPS]
cytokine induction in hPSC-HSCs (IL6, CXCL10 transcripts) ([3]; LPS 500 ng/ml, 12 hrs): induced cytokine | inflammatory cytokine transcription in macrophages (CXCL10, IL6, IL1B) [4]: transcribed inflammatory cytokines | HSC activation markers in liver culture ([5]; LPS 100 ng/ml, one week): elevated activation markers | cytoplasmic lipid droplets in HSCs in liver culture ([5]; LPS 100 ng/ml, one week): lost cytoplasmic lipid droplets | IL1β and TGFβ1 levels produced by liver cultures ([5]; LPS treatment (500 ng/ml, FIG. 2G)): much higher levels

B1: PDGF: platelet-derived growth factor, pro-fibrotic stimulus (protein, UniProt P01127 82-190, looked up)
Platelet-derived growth …: SLGSLTIAEPAMIAECKTRTEVFEISRRLIDRTNANFLVWPPCVEVQRCSGCCNNRNVQCRPTQVQLRPVQVRKIEIVRKKPIFKKATVTLEDHLACKCETVAAARPVT
modifications: homodimer PDGF-BB
notes: platelet-derived growth factor, pro-fibrotic stimulus
activation of hPSC-HSCs (COL1A1, FN, ACTA2 western blot) [3]: clearly activated
